Tests used:
[1] = target: PIK3CD (Human) (UniProt O00329); experiment: Inhibition of PIK3CD Kinase Activity
[2] = target: PIK3CG (human) (UniProt P48736); experiment: Inhibition of PIK3CG Kinase Activity
[3] = target: PIK3CA (human) (UniProt P42336); experiment: Inhibition of PIK3CA Kinase Activity
[4] = target: PIK3CB (Human) (UniProt P42338); experiment: Inhibition of PIK3CB Kinase Activity
Sequence of PIK3CB (Human) (P42338 whole entry, looked up): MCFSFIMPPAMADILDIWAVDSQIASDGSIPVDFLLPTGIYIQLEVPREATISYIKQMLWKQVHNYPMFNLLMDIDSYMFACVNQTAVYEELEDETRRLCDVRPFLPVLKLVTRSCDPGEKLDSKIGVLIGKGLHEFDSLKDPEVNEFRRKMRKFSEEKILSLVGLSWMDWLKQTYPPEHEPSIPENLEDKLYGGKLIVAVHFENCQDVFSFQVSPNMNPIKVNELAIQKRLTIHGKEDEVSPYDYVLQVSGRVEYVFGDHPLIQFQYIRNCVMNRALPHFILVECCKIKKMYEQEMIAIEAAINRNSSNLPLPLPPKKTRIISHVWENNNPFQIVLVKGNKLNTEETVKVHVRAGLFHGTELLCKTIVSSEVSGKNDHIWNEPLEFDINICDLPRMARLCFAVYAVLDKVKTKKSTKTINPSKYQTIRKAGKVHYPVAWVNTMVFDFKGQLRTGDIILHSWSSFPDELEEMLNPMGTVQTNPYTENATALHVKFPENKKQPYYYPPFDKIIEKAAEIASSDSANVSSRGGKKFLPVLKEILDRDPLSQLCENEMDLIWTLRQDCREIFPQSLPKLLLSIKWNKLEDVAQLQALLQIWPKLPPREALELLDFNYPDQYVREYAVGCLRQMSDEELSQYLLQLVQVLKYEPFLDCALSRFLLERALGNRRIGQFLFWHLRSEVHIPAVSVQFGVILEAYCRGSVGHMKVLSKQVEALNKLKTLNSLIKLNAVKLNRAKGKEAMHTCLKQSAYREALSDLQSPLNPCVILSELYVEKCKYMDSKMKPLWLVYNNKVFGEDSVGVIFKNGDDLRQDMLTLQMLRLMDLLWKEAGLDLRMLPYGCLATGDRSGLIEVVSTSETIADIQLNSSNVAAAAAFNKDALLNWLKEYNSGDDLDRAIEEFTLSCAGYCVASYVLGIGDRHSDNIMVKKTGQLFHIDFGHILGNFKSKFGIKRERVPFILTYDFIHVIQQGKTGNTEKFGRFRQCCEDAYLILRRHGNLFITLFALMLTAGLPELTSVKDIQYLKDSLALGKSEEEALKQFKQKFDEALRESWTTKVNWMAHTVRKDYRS

Sequence of PIK3CA (human) (P42336 whole entry, looked up): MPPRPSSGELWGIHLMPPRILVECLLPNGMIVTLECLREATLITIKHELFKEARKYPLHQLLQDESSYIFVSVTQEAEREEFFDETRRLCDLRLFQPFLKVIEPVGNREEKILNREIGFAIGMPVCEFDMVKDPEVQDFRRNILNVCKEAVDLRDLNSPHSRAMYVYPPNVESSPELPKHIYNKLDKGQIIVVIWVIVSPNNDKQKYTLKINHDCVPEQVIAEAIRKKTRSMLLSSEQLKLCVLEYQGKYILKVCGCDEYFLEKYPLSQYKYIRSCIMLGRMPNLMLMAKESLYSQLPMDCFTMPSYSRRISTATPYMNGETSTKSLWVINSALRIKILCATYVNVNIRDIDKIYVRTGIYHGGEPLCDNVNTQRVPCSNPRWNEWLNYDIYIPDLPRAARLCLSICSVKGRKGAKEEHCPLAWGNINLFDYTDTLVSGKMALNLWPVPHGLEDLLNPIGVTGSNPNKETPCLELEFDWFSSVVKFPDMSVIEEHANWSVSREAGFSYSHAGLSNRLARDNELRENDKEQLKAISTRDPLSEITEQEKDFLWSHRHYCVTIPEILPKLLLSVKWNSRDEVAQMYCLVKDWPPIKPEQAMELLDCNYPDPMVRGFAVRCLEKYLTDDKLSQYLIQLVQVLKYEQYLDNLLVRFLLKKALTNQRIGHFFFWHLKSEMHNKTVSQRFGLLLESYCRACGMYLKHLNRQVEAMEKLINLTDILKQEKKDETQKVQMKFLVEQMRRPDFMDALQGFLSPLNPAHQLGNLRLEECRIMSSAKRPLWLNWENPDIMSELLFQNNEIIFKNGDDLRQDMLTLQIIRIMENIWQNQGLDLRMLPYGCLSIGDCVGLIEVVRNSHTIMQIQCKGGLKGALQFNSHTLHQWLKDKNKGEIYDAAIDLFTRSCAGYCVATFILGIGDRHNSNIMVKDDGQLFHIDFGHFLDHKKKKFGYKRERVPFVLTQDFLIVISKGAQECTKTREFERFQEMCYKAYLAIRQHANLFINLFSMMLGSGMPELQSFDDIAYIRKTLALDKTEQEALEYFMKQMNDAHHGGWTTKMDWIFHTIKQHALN
Sequence of PIK3CG (human) (P48736 whole entry, looked up): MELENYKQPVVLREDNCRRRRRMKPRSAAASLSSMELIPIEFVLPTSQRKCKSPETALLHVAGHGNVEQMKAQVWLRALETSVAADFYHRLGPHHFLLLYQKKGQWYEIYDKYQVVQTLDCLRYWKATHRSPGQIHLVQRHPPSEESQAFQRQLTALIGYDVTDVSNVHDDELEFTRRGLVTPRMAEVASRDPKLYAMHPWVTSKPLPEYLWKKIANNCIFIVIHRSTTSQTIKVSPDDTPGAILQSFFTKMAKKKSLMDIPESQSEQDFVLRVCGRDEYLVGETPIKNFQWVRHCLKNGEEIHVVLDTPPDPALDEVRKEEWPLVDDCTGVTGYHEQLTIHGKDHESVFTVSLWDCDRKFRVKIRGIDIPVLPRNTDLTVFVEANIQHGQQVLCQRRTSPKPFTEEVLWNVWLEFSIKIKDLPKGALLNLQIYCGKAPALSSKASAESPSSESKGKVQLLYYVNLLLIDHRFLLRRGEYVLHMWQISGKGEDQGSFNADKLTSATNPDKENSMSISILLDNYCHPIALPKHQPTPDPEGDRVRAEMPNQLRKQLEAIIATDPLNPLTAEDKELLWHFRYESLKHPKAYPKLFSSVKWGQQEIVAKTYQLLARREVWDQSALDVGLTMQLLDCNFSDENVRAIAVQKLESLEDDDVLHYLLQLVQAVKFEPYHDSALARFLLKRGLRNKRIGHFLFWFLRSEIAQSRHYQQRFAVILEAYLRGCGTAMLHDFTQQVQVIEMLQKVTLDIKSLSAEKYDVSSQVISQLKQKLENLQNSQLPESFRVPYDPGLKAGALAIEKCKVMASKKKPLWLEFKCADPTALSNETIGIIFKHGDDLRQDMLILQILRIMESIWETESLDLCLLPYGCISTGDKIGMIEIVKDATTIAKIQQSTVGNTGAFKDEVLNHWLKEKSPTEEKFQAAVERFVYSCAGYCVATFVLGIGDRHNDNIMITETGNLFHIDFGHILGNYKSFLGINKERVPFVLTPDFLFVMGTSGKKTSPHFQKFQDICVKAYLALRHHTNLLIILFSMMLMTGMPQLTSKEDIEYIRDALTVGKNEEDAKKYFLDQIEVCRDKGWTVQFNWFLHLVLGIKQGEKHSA
Sequence of PIK3CD (Human) (O00329 whole entry, looked up): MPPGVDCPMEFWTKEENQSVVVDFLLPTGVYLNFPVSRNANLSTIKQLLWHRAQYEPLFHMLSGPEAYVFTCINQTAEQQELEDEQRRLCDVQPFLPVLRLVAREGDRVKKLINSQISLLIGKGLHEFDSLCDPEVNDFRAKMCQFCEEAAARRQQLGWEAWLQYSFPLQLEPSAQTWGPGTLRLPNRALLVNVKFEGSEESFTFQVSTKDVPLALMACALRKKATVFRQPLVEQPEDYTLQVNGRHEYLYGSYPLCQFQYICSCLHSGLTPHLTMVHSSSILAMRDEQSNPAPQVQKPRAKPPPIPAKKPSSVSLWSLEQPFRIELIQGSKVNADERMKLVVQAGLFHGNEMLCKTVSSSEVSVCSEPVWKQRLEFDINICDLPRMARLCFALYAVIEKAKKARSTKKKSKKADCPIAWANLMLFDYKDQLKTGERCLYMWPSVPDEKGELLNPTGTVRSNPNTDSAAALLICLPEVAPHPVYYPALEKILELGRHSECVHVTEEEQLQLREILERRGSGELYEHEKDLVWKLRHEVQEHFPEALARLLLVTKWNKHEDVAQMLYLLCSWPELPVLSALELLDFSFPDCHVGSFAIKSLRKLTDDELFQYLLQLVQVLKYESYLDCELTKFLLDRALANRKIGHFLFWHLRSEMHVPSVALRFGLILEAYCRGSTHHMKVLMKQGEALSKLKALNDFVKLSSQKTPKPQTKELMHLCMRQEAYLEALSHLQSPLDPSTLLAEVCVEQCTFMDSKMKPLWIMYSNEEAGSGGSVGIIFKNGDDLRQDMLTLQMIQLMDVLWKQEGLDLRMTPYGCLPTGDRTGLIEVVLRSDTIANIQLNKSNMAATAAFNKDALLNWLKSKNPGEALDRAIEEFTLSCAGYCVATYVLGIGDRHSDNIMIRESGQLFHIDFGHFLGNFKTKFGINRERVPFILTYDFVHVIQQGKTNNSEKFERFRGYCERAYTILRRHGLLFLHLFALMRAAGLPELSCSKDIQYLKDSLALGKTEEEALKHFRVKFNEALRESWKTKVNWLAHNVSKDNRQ

`C[C@H](Nc1ncnc2[nH]cc(C(N)=O)c12)c1cc2cccc(-c3cnn(C)c3)c2c(=O)n1-c1ccccc1` showed an IC50 [1] of under 100 nM and an IC50 [2] of under 100 nM.
`C[C@H](Nc1nc(N)ncc1C#N)c1cc2cccc(-c3cnn(C)c3)c2c(=O)n1-c1ccccc1` showed an IC50 [3] of over 10000 nM, an IC50 [1] of under 100 nM and an IC50 [2] of under 100 nM. The IC50 [4] was over 10000 nM.
Work on `CCc1cccc2cc([C@H](C)Nc3ncnc4[nH]cnc34)n(-c3ccccc3)c(=O)c12` yielded an IC50 [1] of under 100 nM and an IC50 [2] of under 100 nM.
In the case of `C[C@H](Nc1ncnc2[nH]cnc12)c1cc2cccc(N3CCOCC3)c2c(=O)n1-c1ccccc1`, the IC50 [3] is reported as over 10000 nM, the IC50 [1] is reported as 100 to 1000 nM and the IC50 [2] is reported as 100 to 1000 nM. For the same compound, the IC50 [4] was over 10000 nM.
In the case of `C[C@H](Nc1ncnn2cncc12)c1cc2cccc(-c3cnn(C)c3)c2c(=O)n1-c1ccccc1`, the IC50 [3] is reported as over 10000 nM, the IC50 [2] is reported as over 10000 nM and the IC50 [4] is reported as over 10000 nM.
`Cc1cn(-c2cccc3cc([C@H](C)Nc4ncnc5[nH]cnc45)n(-c4ccccc4)c(=O)c23)cn1` was tested, and the IC50 [3] was over 10000 nM, the IC50 [1] was under 100 nM and the IC50 [4] was over 10000 nM.
Compound `C[C@H](Nc1nc(N)nc2[nH]cnc12)c1cc2cccc(-c3cccnc3)c2c(=O)n1-c1ccccc1` has an IC50 [3] of 100 to 1000 nM, an IC50 [1] of under 100 nM and an IC50 [2] of under 100 nM.
`C[C@H](Nc1nc(N)ncc1C(F)(F)F)c1cc2cccc(-c3cnn(C)c3)c2c(=O)n1C1CC1` gave an IC50 [3] of over 10000 nM, an IC50 [1] of under 100 nM and an IC50 [2] of under 100 nM. It also gave an IC50 [4] of over 10000 nM.
With `C[C@H](Nc1ncnc2[nH]cnc12)c1cc2cccc(-c3cnn(C)c3)c2c(=O)[nH]1` the IC50 [3] was over 10000 nM, the IC50 [2] was over 10000 nM and the IC50 [4] was over 10000 nM.
Work on `C[C@H](Nc1ncnc2[nH]cc(F)c12)c1cc2cccc(-c3cnn(C)c3)c2c(=O)n1C1CC1` yielded an IC50 [1] of under 100 nM and an IC50 [2] of 100 to 1000 nM.
`C[C@H](Nc1ncnn2ccnc12)c1cc2cccc(-c3cnn(C)c3)c2c(=O)n1-c1ccccc1` gave an IC50 [1] of under 100 nM, an IC50 [2] of 100 to 1000 nM and an IC50 [4] of over 10000 nM.
`C[C@H](Nc1ncnc2[nH]cnc12)c1cc2cccc(-c3cccnc3)c2c(=O)n1-c1ccccc1` was tested, and the IC50 [1] was under 100 nM and the IC50 [2] was under 100 nM.
Work on `Cc1ccc(-c2cccc3cc([C@H](C)Nc4nc(N)nc5[nH]cnc45)n(-c4ccccc4)c(=O)c23)cn1` yielded an IC50 [3] of 100 to 1000 nM, an IC50 [1] of under 100 nM and an IC50 [2] of under 100 nM.
In the case of `C[C@H](Nc1ncnc2[nH]cc(C#N)c12)c1cc2cccc(-c3cnn(C)c3)c2c(=O)n1-c1ccccc1`, the IC50 [3] is reported as 100 to 1000 nM, the IC50 [1] is reported as under 100 nM and the IC50 [2] is reported as under 100 nM.
For `C[C@H](Nc1ncnc2[nH]cnc12)c1cc2cccc(NC3CCOCC3)c2c(=O)n1-c1ccccc1`, the IC50 [3] was over 10000 nM, the IC50 [1] was 100 to 1000 nM and the IC50 [4] was over 10000 nM.
Compound `Cc1cc(-c2cccc3cc([C@H](C)Nc4ncnc5[nH]cnc45)n(-c4ccccc4)c(=O)c23)ccn1` has an IC50 [3] of 100 to 1000 nM, an IC50 [1] of under 100 nM and an IC50 [2] of under 100 nM.
Work on `C[C@H](Nc1ncnc2[nH]cnc12)c1cc2cccc(-c3cccnc3)c2c(=O)n1C1CC1` yielded an IC50 [1] of under 100 nM, an IC50 [2] of under 100 nM and an IC50 [4] of 100 to 1000 nM.
`C[C@H](Nc1nc(N)ncc1C#N)c1cc2cccc(-c3cnn(C)c3)c2c(=O)n1C1CC1` gave an IC50 [1] of under 100 nM, an IC50 [2] of under 100 nM and an IC50 [4] of under 100 nM.
`C[C@H](Nc1ncnc2[nH]cnc12)c1cc2cccc(-c3cn[nH]c3)c2c(=O)n1C1CC1` was tested, and the IC50 [3] was 100 to 1000 nM, the IC50 [1] was under 100 nM and the IC50 [2] was under 100 nM. For the same compound, the IC50 [4] was 100 to 1000 nM.
With `C[C@H](Nc1ncnc2[nH]cnc12)c1cc2cccc(-c3cnn(C)c3)c2c(=O)n1-c1ccccc1` the IC50 [3] was over 10000 nM, the IC50 [1] was under 100 nM and the IC50 [2] was under 100 nM. The IC50 [4] was over 10000 nM.
`C[C@H](Nc1ncnc2[nH]cnc12)c1cc2cccc(-c3cccc(F)c3)c2c(=O)n1-c1ccccc1` gave an IC50 [1] of under 100 nM and an IC50 [2] of under 100 nM.
Compound `Cc1ccc(-c2cccc3cc([C@H](C)Nc4ncnc(N)n4)n(-c4ccccc4)c(=O)c23)cn1` has an IC50 [3] of over 10000 nM, an IC50 [1] of 100 to 1000 nM and an IC50 [4] of over 10000 nM.
For `C[C@H](Nc1nc(N)ncc1I)c1cc2cccc(-c3cnn(C)c3)c2c(=O)n1-c1ccccc1`, the IC50 [3] was over 10000 nM, the IC50 [1] was under 100 nM and the IC50 [2] was under 100 nM. The IC50 [4] was over 10000 nM.
`C[C@H](Nc1ncnc2[nH]cnc12)c1cc2cccc(N(C)C)c2c(=O)n1-c1ccccc1` gave an IC50 [3] of over 10000 nM and an IC50 [4] of over 10000 nM.
Compound `C[C@H](Nc1ncnc2[nH]cnc12)c1cc2cccc(C#N)c2c(=O)n1-c1ccccc1` has an IC50 [3] of over 10000 nM, an IC50 [1] of under 100 nM and an IC50 [2] of under 100 nM.
In the case of `C[C@H](Nc1nc(N)ncc1Cl)c1cc2cccc(-c3cnn(C)c3)c2c(=O)n1-c1ccccc1`, the IC50 [3] is reported as over 10000 nM, the IC50 [1] is reported as under 100 nM and the IC50 [2] is reported as 100 to 1000 nM. It also gave an IC50 [4] of over 10000 nM.
`Cc1cnn(-c2cccc3cc([C@H](C)Nc4ncnc5[nH]cnc45)n(-c4ccccc4)c(=O)c23)c1` showed an IC50 [3] of over 10000 nM, an IC50 [1] of 100 to 1000 nM and an IC50 [4] of over 10000 nM.
Compound `C[C@H](Nc1ncnc2[nH]cnc12)c1cc2cccc(-c3cnn(C)c3)c2c(=O)n1C1CC1` has an IC50 [1] of under 100 nM and an IC50 [2] of 100 to 1000 nM.
Compound `C=Cc1cccc2cc([C@H](C)Nc3ncnc4[nH]cnc34)n(-c3ccccc3)c(=O)c12` has an IC50 [1] of under 100 nM and an IC50 [2] of under 100 nM.
Compound `C[C@H](Nc1ncnc(N)c1C#N)c1cc2cccc(-c3cnn(C)c3)c2c(=O)n1-c1ccccc1` has an IC50 [1] of under 100 nM, an IC50 [2] of under 100 nM and an IC50 [4] of over 10000 nM.
In the case of `COc1ncc(-c2cccc3cc([C@H](C)Nc4ncnc5[nH]cnc45)n(-c4ccccc4)c(=O)c23)cn1`, the IC50 [1] is reported as under 100 nM and the IC50 [4] is reported as over 10000 nM.
`C[C@H](Nc1ncnc2[nH]cnc12)c1cc2cccc(N3CCN(C)CC3)c2c(=O)n1-c1ccccc1` showed an IC50 [3] of over 10000 nM, an IC50 [1] of 100 to 1000 nM and an IC50 [2] of over 10000 nM. It also gave an IC50 [4] of over 10000 nM.
Compound `C[C@H](Nc1ncnc(N)n1)c1cc2cccc(-c3cnn(C)c3)c2c(=O)n1-c1ccccc1` has an IC50 [3] of over 10000 nM, an IC50 [1] of under 100 nM and an IC50 [4] of over 10000 nM.
`C[C@H](Nc1ncnc2[nH]cnc12)c1cc2cccc(N3CCCC3)c2c(=O)n1-c1ccccc1` was tested, and the IC50 [3] was over 10000 nM and the IC50 [4] was over 10000 nM.
With `C[C@H](Nc1ncnc2[nH]cnc12)c1cc2cccc(-c3ccncc3)c2c(=O)n1-c1ccccc1` the IC50 [1] was under 100 nM and the IC50 [2] was under 100 nM.
Work on `C[C@H](Nc1ncnc2[nH]cnc12)c1cc2cccc(-c3cn[nH]c3)c2c(=O)n1-c1ccccc1` yielded an IC50 [1] of under 100 nM, an IC50 [2] of 100 to 1000 nM and an IC50 [4] of over 10000 nM.
`C[C@H](Nc1ncnc2[nH]cnc12)c1cc2cccc(-c3cnn(C)c3)c2c(=O)n1-c1cccc(F)c1` showed an IC50 [1] of under 100 nM, an IC50 [2] of under 100 nM and an IC50 [4] of over 10000 nM.
`Cc1ccc(-c2cccc3cc([C@H](C)Nc4ncnc5[nH]cnc45)n(-c4ccccc4)c(=O)c23)cn1` showed an IC50 [1] of under 100 nM, an IC50 [2] of under 100 nM and an IC50 [4] of over 10000 nM.
With `C[C@H](Nc1ncnc2[nH]cnc12)c1cc2cccc(-n3cccn3)c2c(=O)n1-c1ccccc1` the IC50 [3] was over 10000 nM, the IC50 [1] was 100 to 1000 nM and the IC50 [4] was over 10000 nM.
Compound `C[C@H](Nc1ncnc2[nH]cnc12)c1cc2cccc(-c3cc[nH]n3)c2c(=O)n1-c1ccccc1` has an IC50 [3] of over 10000 nM, an IC50 [1] of under 100 nM and an IC50 [2] of under 100 nM. The IC50 [4] was over 10000 nM.
In the case of `C[C@H](Nc1ncnc2[nH]cnc12)c1cc2cccc(-c3cccnc3)c2c(=O)[nH]1`, the IC50 [3] is reported as over 10000 nM, the IC50 [1] is reported as under 100 nM and the IC50 [2] is reported as 100 to 1000 nM. For the same compound, the IC50 [4] was over 10000 nM.
With `C[C@H](Nc1nc(N)nc2[nH]cnc12)c1cc2cccc(-c3cnn(C)c3)c2c(=O)n1-c1ccccc1` the IC50 [3] was 100 to 1000 nM, the IC50 [1] was under 100 nM and the IC50 [2] was under 100 nM.
With `C[C@H](Nc1nc(N)ncc1C(F)(F)F)c1cc2cccc(-c3cnn(C)c3)c2c(=O)n1-c1ccccc1` the IC50 [3] was over 10000 nM, the IC50 [1] was under 100 nM and the IC50 [2] was under 100 nM. The IC50 [4] was over 10000 nM.
